Results taken from patent US7109193B2, “Tricyclic diazepines tocolytic oxytocin receptor antagonists” (Wyeth, priority 2001, dated 2006).

Biological target: T1, human vasopressin V2 receptor subtype (Homo sapiens, UniProt P30518)
T1 construct: host or cells: CHO cells (pZeoSV vector)
Experiment: Vasopressin binding in Chinese Hamster Ovary cell membranes expressing human vasopressin V2 subtype receptors
Details: 100 nM, CHO cell membranes, [3H]arginine vasopressin, values without parentheses
Outline: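 Radioligand displacement on membranes from CHO cells stably expressing human V2 receptor, 25 to 50 μg protein/well, in 50 mM Tris-HCl pH 7.4 with MgCl2, BSA and protease inhibitors. [^3H]arginine vasopressin (8 nM working solution) incubated 60 min at room temperature; bound label measured by filtration and scintillation counting.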

T1 sequence (P30518 whole entry): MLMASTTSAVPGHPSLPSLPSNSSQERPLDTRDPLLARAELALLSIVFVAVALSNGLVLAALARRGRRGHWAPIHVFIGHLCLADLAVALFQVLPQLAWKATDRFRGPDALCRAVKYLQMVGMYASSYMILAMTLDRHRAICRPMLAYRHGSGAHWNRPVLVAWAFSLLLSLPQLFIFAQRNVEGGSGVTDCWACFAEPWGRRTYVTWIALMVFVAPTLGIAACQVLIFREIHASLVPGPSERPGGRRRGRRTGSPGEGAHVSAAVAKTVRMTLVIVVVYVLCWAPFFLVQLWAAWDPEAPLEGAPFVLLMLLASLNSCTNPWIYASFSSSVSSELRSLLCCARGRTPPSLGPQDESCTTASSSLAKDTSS

Compound	inhibition at 0.1 µM
CN1CCCN(C(=O)c2ccc3n2Cc2ccccc2N(C(=O)c2ccc(-c4cccc5ccccc45)cc2Cl)C3)CC1 [Example 71, {10-[2-Chloro-4-(1-naphthyl)benzoyl]-10,11-dihydro-5H-pyrrolo[2,1-c][1,4]benzodiazepin-3-yl}(4-methyl-1,4-diazepan-1-yl)methanone]	13%
CC(C)N1CCN(C(=O)c2ccc3n2Cc2ccccc2N(C(=O)c2ccc(-c4cccc5ccccc45)cc2Cl)C3)CC1 [Example 243, {10-[2-Chloro-4-(1-naphthyl)benzoyl]-10,11-dihydro-5H-pyrrolo[2,1-c][1,4]benzodiazepin-3-yl}(4-isopropyl-1-piperazinyl)methanone]	21%
COc1cccc(-c2ccc(C(=O)N3Cc4ccc(C(=O)N5CCN(CCCN(C)C)CC5)n4Cc4ccccc43)cc2OC)c1 [Example 255, {10-[(2,3′-Dimethoxy[1,1′-biphenyl]-4-yl)carbonyl]-10,11-dihydro-5H-pyrrolo[2,1-c][1,4]benzodiazepin-3-yl}{4-[3-(dimethylamino)propyl]-1-piperazinyl}methanone]	27%
COc1cccc(-c2cc(OC)c(C(=O)N3Cc4ccc(C(=O)N5CCN(CCCN(C)C)CC5)n4Cc4ccccc43)cc2Cl)c1 [Example 252, {10-[(6-Chloro-3,3′-dimethoxy[1,1′-biphenyl]-4-yl)carbonyl]-10,11-dihydro-5H-pyrrolo[2,1-c][1,4]benzodiazepin-3-yl}{4-[3-(dimethylamino)propyl]-1-piperazinyl}methanone]	21%
Cc1cc(C(=O)N2Cc3ccc(C(=O)n4ccnc4)n3Cc3ccccc32)ccc1-c1ccccc1C(F)(F)F [Example 294, 1H-Imidazol-1-yl(10-{[2-methyl-2′-(trifluoromethyl)[1,1′-biphenyl]-4-yl]carbonyl}-10,11-dihydro-5H-pyrrolo[2,1-c][1,4]benzodiazepin-3-yl)methanone]	-2%
COc1cc(C(=O)N2Cc3ccc(C(=O)NCCCn4ccnc4)n3Cc3ccccc32)ccc1-n1c(C)ccc1C [Example 312, 10-[4-(2,5-Dimethyl-1H-pyrrol-1-yl)-3-methoxybenzoyl]-N-[3-(1H-imidazol-1-yl)propyl]-10,11-dihydro-5H-pyrrolo[2,1-c][1,4]benzodiazepine-3-carboxamide]	3%
COc1ccccc1-c1ccc(C(=O)N2Cc3ccc(C(=O)N[C@H]4CN5CCC4CC5)n3Cc3ccccc32)cc1C [Example 298, N-[(3R)-1-Azabicyclo[2.2.2]oct-3-yl]-10-[(2′-methoxy-2-methyl[1,1′-biphenyl]-4-yl)carbonyl]-10,11-dihydro-5H-pyrrolo[2,1-c][1,4]benzodiazepine-3-carboxamide]	29%
COc1cc(C(=O)N2Cc3ccc(C(=O)N4CCC(N5CCCC5)CC4)n3Cc3ccccc32)ccc1-n1c(C)ccc1C [Example 313, {10-[4-(2,5-Dimethyl-1H-pyrrol-1-yl)-3-methoxybenzoyl]-10,11-dihydro-5H-pyrrolo[2,1-c][1,4]benzodiazepin-3-yl}[4-(1-pyrrolidinyl)-1-piperidinyl]methanone]	2%
COc1cc(-c2ccccc2C)c(Cl)cc1C(=O)N1Cc2ccc(C(=O)NCCCN(C)C)n2Cc2ccccc21 [Example 78, 10-[(6-Chloro-3-methoxy-2′-methyl[1,1′-biphenyl]-4-yl)carbonyl]-N-[3-(dimethylamino)propyl]-10,11-dihydro-5H-pyrrolo[2,1-c][1,4]benzodiazepine-3-carboxamide]	14%
